Results taken from US20250242064A1, “CXCR4-TARGETING COMPOUNDS, AND METHODS OF MAKING AND USING THE SAME” (PROVINCIAL HEALTH SERVICES AUTHORITY, priority 2022, published 2025).
Where a SMILES comes first, the peptide text is derived from it. Bridges are numbered along the chain shown (N, C = ends). Side-chain parts run from the residue outwards. [ ]: non-standard residue; d: D form. The star is where a group is joined. X1 = O=C(O)CN1CCN(CC(=O)O)CCN(CC(=O)N[C@@H](CS(=O)(=O)O)C(=O)N[C@@H](CCCCNC(=O)CCCc2ccc(I)cc2)C(=O)*)CCN(CC(=O)O)CC1; X6 = COc1ccc(CCCC(=O)NCCCC[C@H](NC(=O)[C@H](CS(=O)(=O)O)NC(=O)CN2CCN(CC(=O)O)CCN(CC(=O)O)CCN(CC(=O)O)CC2)C(=O)*)cc1; DOTA = O=C(O)CN1CCN(CC(=O)O)CCN(CC(=O)*)CCN(CC(=O)O)CC1; Butanoyl(4-(4-MeO-phenyl)) = COc1ccc(CCCC(=O)*)cc1; 2Nal = N[C@@H](Cc1ccc2ccccc2c1)C(=O)O; Lys(iPr) = CC(C)NCCCC[C@H](N)C(=O)O; Cya = N[C@@H](CS(=O)(=O)O)C(=O)O

Legend:
in vivo = assay: in vivo; set-up: species or system mice; conditions: male, NOD.Cg-Rag1tm1Mom Il2rgtm1Wjl/SzJ (NRG), mouse, iv, total radioactivity
Summary of the method: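 Male NRG mice bearing subcutaneous Z138 mantle cell lymphoma xenografts (5×10^6 cells, grown to 200-300 mm^3) injected intravenously under isoflurane with 68Ga-labelled tracers. Harvested tissues weighed and gamma-counted; uptake expressed as % ID/g.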

CXCR4 = CXCR4 (Homo sapiens, UniProt P61073); assay: Competitive binding assay, [125I]SDF-1α displacement on CHO:CXCR4 cells; set-up: expressed in transfected cells; host or cells: CHO:CXCR4 cells; conditions: [125I]SDF-1α 0.01 nM, 1 h at 27° C., read-out: IC50 (nM), binding affinity for hCXCR4
Experimental: CHO:CXCR4 cells were seeded at a density of 1×10^5 cells/well in 24-well poly-D-lysine coated plates (Corning BioCoat) and incubated with [^125I]SDF-1α (0.01 nM, PerkinElmer) and competing nonradioactive ligands ([…]). The cells, radioligand, and competing peptides were incubated for 1 h at 27° C. with moderate shaking. Following the incubation period, the supernatant was aspirated, followed by three washes with 1 mL of ice-cold PBS. Cells were harvested with 200 μL of trypsin and counted on a y counter. Data were plotted in GraphPad Prism 7 to determine IC50 values (GraphPad Software, Inc., La Jolla, CA). The values are reported as mean±standard deviation.

[1] = Biodistribution: Small Intestine

Sequence of CXCR4 (P61073 whole entry): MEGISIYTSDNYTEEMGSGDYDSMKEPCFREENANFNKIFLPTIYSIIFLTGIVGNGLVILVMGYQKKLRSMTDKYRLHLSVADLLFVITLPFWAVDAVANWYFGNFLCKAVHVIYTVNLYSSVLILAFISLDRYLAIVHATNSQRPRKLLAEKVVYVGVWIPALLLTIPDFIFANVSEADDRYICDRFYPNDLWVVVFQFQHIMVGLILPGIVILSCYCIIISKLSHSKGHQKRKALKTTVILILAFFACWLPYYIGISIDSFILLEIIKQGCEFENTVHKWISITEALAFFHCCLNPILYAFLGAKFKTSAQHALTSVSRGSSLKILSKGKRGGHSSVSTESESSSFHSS

| tissue uptake at 1 h (in vivo; Biodistribution: Adrenals) | tissue uptake at 1 h (in vivo; Biodistribution: Blood) | tissue uptake at 1 h (in vivo; Biodistribution: Bone) | tissue uptake at 1 h (in vivo; Biodistribution: Brain) | tissue uptake at 1 h (in vivo; Biodistribution: Heart) | tissue uptake at 1 h (in vivo; Biodistribution: Kidneys) | tissue uptake at 1 h (in vivo; Biodistribution: Liver) | tissue uptake at 1 h (in vivo; Biodistribution: Lungs) | tissue uptake at 1 h (in vivo; Biodistribution: Muscle) | tissue uptake at 1 h (in vivo; Biodistribution: Pancreas) | tissue uptake at 1 h (in vivo; [1]) | tissue uptake at 1 h (in vivo; Biodistribution: Spleen) | tissue uptake at 1 h (in vivo; Biodistribution: Stomach) | tissue uptake at 1 h (in vivo; Biodistribution: Testes) | tissue uptake at 1 h (in vivo; Biodistribution: Z138 Tumor) | tissue to tissue ratio at 1 h (in vivo; Ratio Tumor-to-Blood) | tissue to tissue ratio at 1 h (in vivo; Ratio Tumor-to-Bone) | tissue to tissue ratio at 1 h (in vivo; Ratio Tumor-to-Kidney) | tissue to tissue ratio at 1 h (in vivo; Ratio Tumor-to-Muscle) | tissue to tissue ratio at 1 h (in vivo; Ratio Tumor-to-Pancreas) | SMILES | also measured |
| --- | --- | --- | --- | --- | --- | --- | --- | --- | --- | --- | --- | --- | --- | --- | --- | --- | --- | --- | --- | --- | --- |
| 4.99 %ID/g | 18.7 %ID/g | 1.53 %ID/g | 0.29 %ID/g | 4.53 %ID/g | 5.39 %ID/g | 3.7 %ID/g | 8.36 %ID/g | 1.39 %ID/g | 1.67 %ID/g | 1.28 %ID/g | 2.35 %ID/g | 0.97 %ID/g | 2.14 %ID/g | 6.55 %ID/g | 0.35 | 4.32 | 1.27 | 4.85 | 3.91 | CC(C)NCCCC[C@H](NC(=O)[C@H]1CCC(=O)N[C@@H](CCCCNC(=O)[C@H](CCCCNC(=O)CCCc2ccc(I)cc2)NC(=O)[C@H](CS(=O)(=O)O)NC(=O)CN2CCN(CC(=O)O)CCN(CC(=O)O)CCN(CC(=O)O)CC2)C(=O)N[C@@H](Cc2ccc(O)cc2)C(=O)N[C@@H](CCCCNC(C)C)C(=O)N[C@H](CCCNC(=N)N)C(=O)N[C@@H](Cc2ccc3ccccc3c2)C(=O)N[C@H](C)C(=O)N1)C(N)=O [[^68Ga]Ga-BL34L11, metal not drawn] (K(X1)Y[Lys(iPr)][dR][2Nal][dA][dE][Lys(iPr)]-NH2; lactam N-7) | tissue uptake at 3 h (in vivo; Biodistribution: Adrenals): 2.34 %ID/g; tissue uptake at 3 h (in vivo; Biodistribution: Blood): 13.4 %ID/g; tissue uptake at 3 h (in vivo; Biodistribution: Bone): 1.23 %ID/g; tissue uptake at 3 h (in vivo; Biodistribution: Brain): 0.22 %ID/g; tissue uptake at 3 h (in vivo; Biodistribution: Heart): 3.17 %ID/g; tissue uptake at 3 h (in vivo; Biodistribution: Kidneys): 3.9 %ID/g; tissue uptake at 3 h (in vivo; Biodistribution: Liver): 3.02 %ID/g; tissue uptake at 3 h (in vivo; Biodistribution: Lungs): 6.64 %ID/g; tissue uptake at 3 h (in vivo; Biodistribution: Muscle): 1.08 %ID/g; tissue uptake at 3 h (in vivo; Biodistribution: Pancreas): 1.42 %ID/g; tissue uptake at 3 h (in vivo; [1]): 1.11 %ID/g; tissue uptake at 3 h (in vivo; Biodistribution: Spleen): 2 %ID/g; tissue uptake at 3 h (in vivo; Biodistribution: Stomach): 0.48 %ID/g; tissue uptake at 3 h (in vivo; Biodistribution: Testes): 2.59 %ID/g; tissue uptake at 3 h (in vivo; Biodistribution: Z138 Tumor): 11.3 %ID/g; tissue to tissue ratio at 3 h (in vivo; Ratio Tumor-to-Blood): 0.85; tissue to tissue ratio at 3 h (in vivo; Ratio Tumor-to-Bone): 10.3; tissue to tissue ratio at 3 h (in vivo; Ratio Tumor-to-Kidney): 2.91; tissue to tissue ratio at 3 h (in vivo; Ratio Tumor-to-Muscle): 10.5; tissue to tissue ratio at 3 h (in vivo; Ratio Tumor-to-Pancreas): 7.95 |
|  |  |  |  |  |  |  |  |  |  |  |  |  |  |  |  |  |  |  |  | COc1ccc(CCCC(=O)NCCCC[C@H](NC(=O)[C@H](CCCCNC(C)C)NC(=O)[C@H]2CCC(=O)N[C@@H](CCCCNC(=O)[C@H](CS(=O)(=O)O)NC(=O)CN3CCN(CC(=O)O)CCN(CC(=O)O)CCN(CC(=O)O)CC3)C(=O)N[C@@H](Cc3ccc(O)cc3)C(=O)N[C@@H](CCCCNC(C)C)C(=O)N[C@H](CCCNC(=N)N)C(=O)N[C@@H](Cc3ccc4ccccc4c3)C(=O)N[C@H](C)C(=O)N2)C(N)=O)cc1 [BL34L8] (K([Cya-DOTA])Y[Lys(iPr)][dR][2Nal][dA][dE][Lys(iPr)]K(Butanoyl(4-(4-MeO-phenyl)))-NH2; lactam N-7) | IC50 (CXCR4): > 100 nM |
| 0.52 %ID/g | 1.73 %ID/g | 0.4 %ID/g | 0.04 %ID/g | 0.41 %ID/g | 2.45 %ID/g | 1.24 %ID/g | 1.75 %ID/g | 0.14 %ID/g | 0.23 %ID/g | 0.34 %ID/g | 0.59 %ID/g | 0.09 %ID/g | 0.44 %ID/g | 11.1 %ID/g | 6.5 | 37.2 | 4.51 | 87.1 | 9.07 | COc1ccc(CCCC(=O)NCCCC[C@H](NC(=O)[C@H](CS(=O)(=O)O)NC(=O)CN2CCN(CC(=O)O)CCN(CC(=O)O)CCN(CC(=O)O)CC2)C(=O)NCCCC[C@@H]2NC(=O)CC[C@H](C(=O)N[C@@H](CCCCNC(C)C)C(N)=O)NC(=O)[C@@H](C)NC(=O)[C@H](Cc3ccc4ccccc4c3)NC(=O)[C@@H](CCCNC(=N)N)NC(=O)[C@H](CCCCNC(C)C)NC(=O)[C@H](Cc3ccc(O)cc3)NC2=O)cc1 [[^68Ga]Ga-BL34L7, metal not drawn] (K(X6)Y[Lys(iPr)][dR][2Nal][dA][dE][Lys(iPr)]-NH2; lactam N-7) |  |
